Reference: ChEMBL document CHEMBL1201862, “PubChem BioAssay data set” (2004)
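1) Cells in 96-well plates. 2) Compound, 48 h, 5 concentrations. 3) Linear interpolation between surrounding doses. 4) Unreached endpoint = highest concentration. GI50 is the concentration that inhibits growth by half.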 Activity calls are given as the source filed them. Rule as the data show it: active = GI50 up to about 1.1 µM and inactive = higher.

Assays:
Assay in all cases: NCI anticancer screen, dose series, 48 h
DLD-1 = tested on: DLD-1
DMS-114 = tested on: DMS-114
HCC 2998 = tested on: HCC 2998
HL-60 = tested on: HL-60
HOP-18 = tested on: HOP-18
HOP-92 = tested on: HOP-92
HT-29 = tested on: HT-29
IGROV-1 = tested on: IGROV-1
NCI-H460 = tested on: NCI-H460
OVCAR-3 = tested on: OVCAR-3
SK-MEL-28 = tested on: SK-MEL-28
SK-MEL-2 = tested on: SK-MEL-2
SK-MEL-5 = tested on: SK-MEL-5
SN12C = tested on: SN12C
MCF7 = tested on: MCF7
NCI/ADR-RES = tested on: NCI/ADR-RES

Measured: GI50

COC(=O)CCC(=O)CC(=O)C1=NS(=O)(=O)c2nc(S(N)(=O)=O)c(Cl)cc2N1
inactive: DLD-1 > 100 µM | DMS-114 > 100 µM | HCC 2998 > 100 µM | HL-60 > 100 µM | HOP-18 > 100 µM | HOP-92 > 100 µM | HT-29 > 100 µM | IGROV-1 > 100 µM | NCI-H460 > 100 µM | OVCAR-3 > 100 µM | SK-MEL-28 > 100 µM | SK-MEL-2 > 100 µM | SK-MEL-5 > 100 µM | SN12C > 100 µM

O=[N+]([O-])c1cc(C(F)(F)F)cc2c1SC1=Nc3ccccc3CN12
inactive: DLD-1 > 100 µM | DMS-114 > 100 µM | HCC 2998 > 100 µM | HL-60 > 100 µM | HOP-18 > 100 µM | HOP-92 > 100 µM | HT-29 > 100 µM | IGROV-1 > 100 µM | MCF7 > 100 µM | NCI-H460 > 100 µM | NCI/ADR-RES > 100 µM | OVCAR-3 > 100 µM | SK-MEL-28 > 100 µM | SK-MEL-2 > 100 µM | SK-MEL-5 > 100 µM | SN12C > 100 µM

N/C(=N\O)N/N=C/c1ccc2c(c1)OCCO2
inactive: DLD-1 19.7 µM | DMS-114 > 28.2 µM | HL-60 18.2 µM | HOP-18 24.2 µM | HOP-92 27 µM | HT-29 8.53 µM | IGROV-1 12.4 µM | MCF7 22.1 µM | NCI-H460 7.55 µM | NCI/ADR-RES 11.1 µM | OVCAR-3 3.15 µM | SK-MEL-28 21.4 µM | SK-MEL-2 9.08 µM | SK-MEL-5 7.21 µM | SN12C 29.6 µM
